Here are results for eight molecules from patent publication US20090149482A1, “STEREOCHEMICALLY DEFINED DIPEPTIDE ESTERS OF ANTIVIRAL AGENTS FOR ENHANCED OCULAR TREATMENT” (priority 2001, published 2009).

One series deals with T1, hPEPT1 (Homo sapiens, UniProt P46059).
T1 construct: endogenous in cells; host or cells: Caco-2 (human colon carcinoma, ATCC)
T1 sequence (P46059 1-708): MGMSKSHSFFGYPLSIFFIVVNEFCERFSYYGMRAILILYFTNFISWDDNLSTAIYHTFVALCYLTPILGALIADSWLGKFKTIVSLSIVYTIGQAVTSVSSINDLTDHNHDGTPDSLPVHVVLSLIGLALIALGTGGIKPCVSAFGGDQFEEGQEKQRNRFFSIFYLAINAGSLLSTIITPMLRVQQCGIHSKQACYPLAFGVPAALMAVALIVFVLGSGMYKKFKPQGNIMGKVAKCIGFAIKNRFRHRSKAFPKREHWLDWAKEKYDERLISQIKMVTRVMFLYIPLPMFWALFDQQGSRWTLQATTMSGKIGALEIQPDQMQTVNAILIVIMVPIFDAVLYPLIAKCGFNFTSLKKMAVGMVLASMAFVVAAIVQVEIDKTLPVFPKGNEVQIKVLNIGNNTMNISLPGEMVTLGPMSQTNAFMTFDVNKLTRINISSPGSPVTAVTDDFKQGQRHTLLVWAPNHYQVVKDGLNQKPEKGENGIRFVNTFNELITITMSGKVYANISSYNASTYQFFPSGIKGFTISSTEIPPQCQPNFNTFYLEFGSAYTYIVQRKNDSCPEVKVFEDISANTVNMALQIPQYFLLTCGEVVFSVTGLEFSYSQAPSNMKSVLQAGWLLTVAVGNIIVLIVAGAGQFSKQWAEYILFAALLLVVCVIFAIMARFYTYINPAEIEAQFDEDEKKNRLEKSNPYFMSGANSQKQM
The series is described as follows: [3H] Glycylsarcosine uptake and its inhibition in Caco-2 cells (affinity towards peptide transporter). As to conditions: for effect on the uptake of [3H] Gly-Sar: Caco-2, pH 6.0, 10 minutes; for Ki: read-out: Ki. The series is classed as cell-based. The text has this: Materials: [^3H] Glycylsarcosine (Gly-Sar; 4 Ci/mmol) was purchased from Moravek Biochemicals (Brea, Calif.) and [^14C] Mannitol (50 mCi/mmol) was supplied by Amersham (Piscataway, N.J.). Human colon carcinoma derived Caco-2 cells were obtained from American Type Culture Collection (ATCC, Rockville, Md.). The growth medium, Dulbecco's modified Eagle Medium was obtained from Life Technologies (Grand Island, N.Y.). […] Fetal bovine serum (FBS) was purchased from JRH Biosciences (Lenexa, Kans.). Culture flasks (75 cm^2 growth area), polyester Transwells® (pore size 0.4 Cm with diameter 6.5 mm) and polyester membranes (pore size 0.4 Cm) were procured from Costar (Bedford, Mass.). The buffer components and solvents were obtained from Fisher Scientific (St. Louis, Mo.). All the di-peptide esters of acyclovir were custom synthesized in our laboratory. […] Cell Culture: All cultures were maintained in humidified incubator at 37° C. with a 5% carbon dioxide in air atmosphere. Caco-2 cells were obtained at passage 25 from American Type Culture Collection (ATCC) and grown in plastic tissue culture flasks. […] When 80% confluent, these cells were removed by treating them with Trypsin/EDTA and plated at a density of 100,000 cells/cm^2 on collagen coated plastic dishes containing clear polyester membranes (0.636 cm^2, […]) or 12-well tissue culture treated plastic plates. Cells were then grown in medium containing 10% FBS (heat-inactivated). […] [^14C] […] Metabolism studies in Cell Suspensions: Confluent Caco-2 cells, grown in tissue culture flasks were isolated with the aid of mechanical scraper and washed thrice with DPBS. […] One-hundred micro-liters of samples were withdrawn at predetermined time intervals and the sample was purified by precipitating the cellular proteins into the organic solvent mixture and stored at −80° C. until further analysis. The protein content of the cell suspension was determined by the method of Bradford using bovine serum albumin as the standard (BioRad protein estimation kit, Hercules, Calif.). […] Transport studies: Transport experiments were done using Side-Bi-Side™ diffusion cells (type VSC-1, Crown Glass Company Inc.) and Transwell® inserts. Prior to the experiment with Gly-Sar, Caco-2 cell monolayers grown on the clear polyester membranes and Transwell® inserts were washed with DPBS (pH 6.0) and incubated at 37° C. Freshly prepared drug solutions in DPBS (pH 6.0) was placed in the donor chamber and the receiver chamber was filled with DPBS. The volumes of donor and receptor chambers were 3 ml each for Side-Bi-Side™ diffusion cells and 0.5 ml and 1.5 ml respectively for Transwell® inserts. […] The samples were stored at −80° C. until analyzed HPLC. All experiments were performed at 37° C. […] The concentration dependent uptake of glycylsarcosine was studied using [^3H] […] For Dixon plots and Dose Response studies [^3H] […] Following incubation, the cell monolayers were washed three times with ice-cold HEPES buffer to terminate the uptake experiment. After the washings cells were lysed overnight using 1 ml 0.1% (w/v) Triton X-100 in 0.3 N NaOH at room temperature. Aliquots (500 μl) from each well were then transferred to scintillation vials containing 5 ml scintillation cocktail (Fisher Scientific, Fairlawn, N.J.). […] The amount of protein in the cell lysate was measured by the BioRad protein estimation kit using bovine serum albumin as standard (BioRad Protein estimation Kit, Hercules, Calif.). Analytical Procedures: All samples were assayed using HPLC. […] The column used was a C18 Luna column 4.6×250 mm (Phenomenex). The mobile phase consisted of a mixture of buffer and an organic modifier. The percentage of organic phase was varied in order to elute compounds of interest.
On the technique in general: Caco-2 monolayers are a common model of the intestinal barrier.

Series [1] relates to oligopeptide transporter on the rabbit cornea.
Another series relates to HCMV. The series is described as follows: In vitro antiviral screening, CPE inhibition in HFF cells. It counts as cell-based, human cytomegalovirus. The conditions noted are these: Human betaherpesvirus 5, HFF; HCMV, CPE Inhibition.
Substrate in series [2]: CN(CC(=O)O)C(=O)CN
The series is described as follows: [3H] Glycylsarcosine uptake and its inhibition in Caco-2 cells (affinity towards peptide transporter). The series is classed as cell-based, human. As to conditions: other: Gly-Sar alone, 37.0 °C.

Like-named read-outs stand apart in the source and are kept apart here. Marks after values point to notes of the source that are not given here. Where a SMILES comes first, the peptide text is derived from it. [ ]: non-standard residue; d: D form. Sar = CNCC(=O)O

In the case of `CC(C)[C@H](N)C(=O)N[C@H](C(=O)O)C(C)C` [val-val, reference compound] (H-Val-Val-OH), at hPEPT1, the “effect on the uptake of [3H] Gly-Sar” value is given as “significantly inhibited”.

In the case of `Nc1ccc(C(=O)NCC(=O)O)cc1` [PAH, para-aminohippuric acid, reference compound], the “transport of Val-ACV (percent of control)” value in series [1] (1 mM Val-ACV in presence of 10 mM compound) is listed as 99.6±2.6% of control.

Usually EC50 stands for the concentration giving half of the maximal effect. The molecule `Nc1nc(O)c2ncn(COC(CO)CO)c2n1` [GCV, 2-amino-1,9-[[2-hydroxy-1-(hydroxymethyl)ethoxy]methyl]-6H-purin-6-one] yielded an EC50 in the series on HCMV of 0.94 µM.

Turning to `NCC(=O)OCCOCn1cnc2c(=O)[nH]c(N)nc21` [glycine-ACV], the “effect on the uptake of [3H] Gly-Sar” value at hPEPT1 is reported as “did not inhibit”.

For `Nc1nc2c(ncn2COCCOC(=O)C(N)Cc2ccc(O)cc2)c(=O)[nH]1` (stereo not drawn) [tyrosine-ACV], the “effect on the uptake of [3H] Gly-Sar” value at hPEPT1 was “did not inhibit”.

The Ki is the dissociation constant of the complex between target and ligand, obtained from inhibition or displacement. A word on the IC50: it is the concentration at which inhibition is half-maximal. As for `CN(CC(=O)O)C(=O)CN` [Gly-Sar, glycylsarcosine, reference compound] (H-Gly-[Sar]-OH), the “effect on the uptake of [3H] Gly-Sar” value on hPEPT1 is “significantly inhibited”. The “Kd (rate constant of nonsaturable uptake component)” value on hPEPT1 (Caco-2 uptake of glycylsarcosine) came to 12.2 ± 0.57 µL/min/mg. In addition, the Ki turned out to be 2350 ± 670 µM on hPEPT1 (Dixon); 2490 µM at hPEPT1 (Dose Response (Cheng and Prusoff from IC50)). For the same molecule, the “Vmax of glycylsarcosine uptake” value on hPEPT1 (Gly-Sar alone, Michaelis-Menten) is 0.078 ± 0.005 µmol/min/mg. The IC50 at hPEPT1 (dose response curves, read-out: IC50 of inhibition of [3H] Gly-Sar uptake) turned out to be 2780 ± 340 µM.

Consider `CC[N+](CC)(CC)CC` [TEA, tetraethlyammonium, reference compound], for which the “transport of Val-ACV (percent of control)” value in series [1] is given as 101.3±1.1% of control.

B1: hPEPT1 (Homo sapiens) (protein)
chain: MGMSKSHSFFGYPLSIFFIVVNEFCERFSYYGMRAILILYFTNFISWDDNLSTAIYHTFVALCYLTPILGALIADSWLGKFKTIVSLSIVYTIGQAVTSVSSINDLTDHNHDGTPDSLPVHVVLSLIGLALIALGTGGIKPCVSAFGGDQFEEGQEKQRNRFFSIFYLAINAGSLLSTIITPMLRVQQCGIHSKQACYPLAFGVPAALMAVALIVFVLGSGMYKKFKPQGNIMGKVAKCIGFAIKNRFRHRSKAFPKREHWLDWAKEKYDERLISQIKMVTRVMFLYIPLPMFWALFDQQGSRWTLQATTMSGKIGALEIQPDQMQTVNAILIVIMVPIFDAVLYPLIAKCGFNFTSLKKMAVGMVLASMAFVVAAIVQVEIDKTLPVFPKGNEVQIKVLNIGNNTMNISLPGEMVTLGPMSQTNAFMTFDVNKLTRINISSPGSPVTAVTDDFKQGQRHTLLVWAPNHYQVVKDGLNQKPEKGENGIRFVNTFNELITITMSGKVYANISSYNASTYQFFPSGIKGFTISSTEIPPQCQPNFNTFYLEFGSAYTYIVQRKNDSCPEVKVFEDISANTVNMALQIPQYFLLTCGEVVFSVTGLEFSYSQAPSNMKSVLQAGWLLTVAVGNIIVLIVAGAGQFSKQWAEYILFAALLLVVCVIFAIMARFYTYINPAEIEAQFDEDEKKNRLEKSNPYFMSGANSQKQM
notes: endogenous in cells; host or cells: Caco-2 (human colon carcinoma, ATCC)
Broadly, the Km is the substrate concentration at which the rate is half of its maximum. As usually defined, the Vmax is the rate approached at saturating substrate. B1: the Km in series [2] (Eadie-Hofstee) was 1.42 ± 0.19 mM; in series [2] (Lineweaver-Burk (control)), 2.04 ± 0.61^a mM; in series [2] (Michaelis-Menten) it was 1.63 ± 0.25 mM. In addition, the Vmax in series [2] (Eadie-Hofstee) stood at 0.071 µmol/min/mg; in series [2] (Lineweaver-Burk (control)) it was 0.086 µmol/min/mg; in series [2] (Michaelis-Menten), 0.078 µmol/min/mg.
